This is an account of results in patent US9492450B2, “Inhibition of dynamin related protein 1 to promote cell death” (University of Pittsburgh—of the Commonwealth System of …, priority 2011, dated 2016).

For assay [1], the system named is MDA-MB-231 cells. Kind of assay: Caspase-3/7 activity assay (apoptosis). The class given is cell-based, human. As to conditions: 20 h. On the procedure:
FIG. 18. […] Multidrug-resistant MDA-MB-231 breast carcinoma cells were treated with increasing doses of mdivi-1 alone, a series of anticancer drugs alone, or the combination of increasing doses of anticancer drugs with 20 μM mdivi-1 for 20 h. Apoptosis was determined by measuring the activity of caspase-3/7. The drugs tested were platinum agent, cisplatin; antifolate agent, methotrexate; topoisomerase II inhibitor, etoposide; cytidine analog, gemcitabine; pyrimidine analog, 5-FU; alkylating agents, cyclophosphamide, MMS and MNNG; DNA crosslinking agent, MMC; DNA intercalating agent, doxorubicin; and antimitotic drug, paclitaxel.
FIG. 21A-F. Mdivi-1 enhances cisplatin sensitivity through Drp1-independent mechanisms. (A) Confirmation of the depletion of Drp1 in Drp1 knockout SV40-transformed MEF cells by western blot. (B) Drp1 wild-type (Drp1+/+) and knockout (Drp1−/−) MEF cells were treated as indicated for 20 h, and the number of apoptotic cells was determined by antibody recognizing cleaved caspase-3. […] (C) Drp1 wild-type and knockout MEF cells were treated with mdivi-1 for 24 h, and the cell number were determined by CyQuant assay. (D) OCR was measured after 1 h treatment of Drp1 wild-type and knockout MEF cells with DMSO or mdivi-1. (E) The combination effect of cisplatin with four analogs of mdivi-1. […]

In assay [2] the test system is MDA-MB-231 cells. Nature of the assay: DNA content flow cytometry (propidium iodide): G2/M arrest and aneuploidy. The class given is cell-based, human. As to conditions: 5 μg/ml oligomycin, 5 μM FCCP or 10 μg/ml antimycin A, 24 h. Background: A flow cytometer gives signals particle by particle.
The test system of a further assay is Drp1. The following applies: as said in Cassidy-Stone et al., Dev Cell 14:193-204; cited from earlier work.
Assay [3] can be described thus: Synergy with cisplatin, experiments not described.

`C[C@]1(c2nc3c(C(N)=O)cccc3[nH]2)CCCN1` [ABT-888]: the “apoptosis, alone and in combination with cisplatin” value in the assay with MDA-MB-231 cells [1] (series doses) is “resistant”.
Turning to `CC[C@H]1/C=C/C=C/C[C@@H](C)[C@H](O)[C@@](C)(O)C(=O)[C@@H](C)[C@H](O)[C@@H](C)C(=O)[C@@H](C)[C@H](O)[C@@H](C)/C=C/C(=O)O[C@@H]2[C@H](C)[C@H](CC1)O[C@]1(CC[C@H](C)[C@H](C[C@@H](C)O)O1)[C@H]2C` [oligomycin], the “G2/M cell cycle arrest and aneuploidy” value in the assay with MDA-MB-231 cells [2] was “did not induce G2/M cell cycle arrest and aneuploidy”.
With `COc1cc(-n2c(SC)nc3ccccc3c2=O)c(Cl)cc1Cl` [compound F], the “combination effect with cisplatin in enhancing apoptosis” value in the assay with MDA-MB-231 cells [1] (20 μM of agents alone or in combination with cisplatin) is given as “abolished the synergism with cisplatin”. In the assay with Drp1, the “efficacy in inhibiting Drp1 relative to mdivi-1” value is reported as “poor efficacy”.
With antimycin A, in the assay with MDA-MB-231 cells [2], the “G2/M cell cycle arrest and aneuploidy” value was “did not induce G2/M cell cycle arrest and aneuploidy”.
As for `N#CC(C#N)=NNc1ccc(OC(F)(F)F)cc1` [FCCP], the “G2/M cell cycle arrest and aneuploidy” value in the assay on MDA-MB-231 cells [2] was “did not induce G2/M cell cycle arrest and aneuploidy”.
For the compound `O=C(N/N=C/c1ccc(O)c(O)c1)c1cc2ccccc2cc1O` [Dynasore], in assay [3], the “synergistic effect with cisplatin” value is on record as “have not demonstrated a synergistic effect”.
